# Laboratory results as given in ChEMBL document CHEMBL1146036, “Structural determinants of opioid activity in derivatives of 14-aminomorphinones: effect of substitution in the aromatic ring of cinnamoylaminomorphinones and codeinones” (J Med Chem, 2006).
# Experiments:
# Mu-type opioid receptor [1] = target: T1, Mu-type opioid receptor (Homo sapiens, UniProt P35372); experiment: Displacement of [3H]DAMGO from human recombinant MOR expressed in CHO cells; type: cell-based
# Mus musculus [2] = experiment: Agonist activity in sc dosed mouse by tail flick assay; type: functional
# Mu-type opioid receptor [3] = target: T1, Mu-type opioid receptor; experiment: Activity at human recombinant MOR transfected in CHO cells assessed as reversal of stimulation of [35S]GTP-gamma-S binding; type: functional, cell-based; conditions: filed as antagonist
# [4] = target: T2, Delta-type opioid receptor (Homo sapiens, UniProt P41143); conditions: CHO
# T2 sequence (P41143 whole entry): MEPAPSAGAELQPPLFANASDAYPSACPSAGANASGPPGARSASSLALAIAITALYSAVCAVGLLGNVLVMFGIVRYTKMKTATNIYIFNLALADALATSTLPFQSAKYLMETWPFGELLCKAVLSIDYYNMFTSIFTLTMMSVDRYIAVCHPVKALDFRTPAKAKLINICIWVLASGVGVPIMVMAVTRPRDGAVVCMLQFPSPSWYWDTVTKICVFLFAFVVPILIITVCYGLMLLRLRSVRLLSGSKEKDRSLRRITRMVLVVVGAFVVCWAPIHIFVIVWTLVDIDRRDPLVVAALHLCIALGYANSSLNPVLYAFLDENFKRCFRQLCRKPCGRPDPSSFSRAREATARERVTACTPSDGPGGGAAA
# Description: Reversal of stimulation of [35S]GTP-gamma-S binding to human recombinant DOR transfected in CHO cells relative to DPDPE
# [5] = target: T3, Kappa-type opioid receptor (Homo sapiens, UniProt P41145); experiment: Activity at human recombinant KOR transfected in CHO cells assessed as reversal of stimulation of [35S]GTPgammaS binding; type: functional, cell-based; conditions: filed as antagonist
# T3 sequence (P41145 whole entry): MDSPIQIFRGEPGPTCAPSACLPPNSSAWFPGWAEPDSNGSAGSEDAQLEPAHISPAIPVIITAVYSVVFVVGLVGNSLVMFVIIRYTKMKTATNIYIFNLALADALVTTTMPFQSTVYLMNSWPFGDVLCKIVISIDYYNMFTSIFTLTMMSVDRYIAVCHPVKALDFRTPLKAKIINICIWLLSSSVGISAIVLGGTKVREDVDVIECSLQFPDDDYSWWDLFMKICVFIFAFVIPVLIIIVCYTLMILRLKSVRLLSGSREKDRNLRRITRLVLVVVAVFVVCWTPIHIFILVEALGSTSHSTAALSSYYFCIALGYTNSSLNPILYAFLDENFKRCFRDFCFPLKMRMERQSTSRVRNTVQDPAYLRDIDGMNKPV
# [6] = target: T3, Kappa-type opioid receptor; conditions: CHO
# Description: Reversal of stimulation of [35S]GTPgammaS binding to human recombinant KOR transfected in CHO cells relative to U69593
# Mus musculus [7] = experiment: Antagonist activity against morphine-induced antinociception in sc dosed mouse by tail flick assay; type: functional
# Mu-type opioid receptor [8] = target: T1, Mu-type opioid receptor; experiment: Reversal of stimulation of [35S]GTP-gamma-S binding to human recombinant MOR transfected in CHO cells relative to DAMGO; type: functional, cell-based
# [9] = target: T2, Delta-type opioid receptor; experiment: Activity at human recombinant DOR transfected in CHO cells assessed as reversal of stimulation of [35S]GTP-gamma-S binding; type: functional, cell-based
# [10] = target: T2, Delta-type opioid receptor; experiment: Displacement of [3H]Cl-DPDPE from human recombinant DOR expressed in CHO cells; type: cell-based
# [11] = target: T3, Kappa-type opioid receptor; experiment: biochemical; type: cell-based, CHO
# Description: Displacement of [3H]U-69593 from human recombinant KOR expressed in CHO cells
# Mus musculus [12] = experiment: Agonist activity in mouse by phenylquinone abdominal stretching assay at 1 mg/kg, sc; type: functional; conditions: Abdomen, route subcutaneous
# Mu-type opioid receptor [13] = target: T1, Mu-type opioid receptor; experiment: Stimulation of [35S]GTPgammaS binding to human recombinant MOR; type: functional
# [14] = target: T3, Kappa-type opioid receptor; experiment: Stimulation of [35S]GTP-gamma-S binding to human recombinant KOR; type: functional
# [15] = target: T2, Delta-type opioid receptor; experiment: Stimulation of [35S]GTP-gamma-S binding to human recombinant DOR; type: functional
# [16] = target: T2, Delta-type opioid receptor; experiment: Stimulation of [35S]GTPgammaS binding to human recombinant DOR relative to DPDPE; type: functional
# Mus musculus [17] = experiment: Agonist activity in sc dosed mouse by phenylquinone abdominal stretching assay; type: functional; conditions: Abdomen
# Mus musculus [18] = experiment: Agonist activity in mouse by hot water tail withdrawal assay at 32 mg/kg, sc; type: functional; conditions: route subcutaneous
# Mus musculus [19] = experiment: Antagonist activity against morphine-induced antinociception in sc dosed mouse by hot water tail withdrawal assay at 32 mg/kg, sc; type: functional; set-up: scale not given: the % may be the effect or the level left; conditions: route subcutaneous
# Mus musculus [20] = experiment: Agonist activity in sc dosed mouse by hot water tail withdrawal assay at 10 mg/kg, sc; type: functional; conditions: route subcutaneous
# [21] = target: Kappa-type opioid receptor (Cavia porcellus, UniProt P41144); experiment: Binding affinity to KOR in guinea pig brain membrane; type: cell membranes
# Kappa-type opioid receptor (Cavia porcellus, UniProt P41144), sequence (P41144 whole entry): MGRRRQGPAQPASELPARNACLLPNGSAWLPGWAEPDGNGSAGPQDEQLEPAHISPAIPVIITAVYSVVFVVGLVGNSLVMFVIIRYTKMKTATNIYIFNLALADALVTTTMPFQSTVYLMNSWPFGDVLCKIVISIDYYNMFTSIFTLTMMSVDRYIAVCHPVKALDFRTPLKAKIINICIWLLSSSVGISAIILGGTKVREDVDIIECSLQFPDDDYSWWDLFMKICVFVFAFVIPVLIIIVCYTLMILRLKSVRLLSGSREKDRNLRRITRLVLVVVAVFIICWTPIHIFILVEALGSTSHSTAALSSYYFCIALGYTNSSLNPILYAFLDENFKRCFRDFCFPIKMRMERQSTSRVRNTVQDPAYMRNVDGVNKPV
# Mu-type opioid receptor [22] = target: Mu-type opioid receptor (Cavia porcellus, UniProt P97266); experiment: Binding affinity to MOR in guinea pig brain membrane; type: cell membranes
# Mu-type opioid receptor (Cavia porcellus, UniProt P97266), sequence (P97266 whole entry): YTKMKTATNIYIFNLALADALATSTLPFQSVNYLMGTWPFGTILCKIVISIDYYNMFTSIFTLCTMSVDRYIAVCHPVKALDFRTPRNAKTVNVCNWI
# Mus musculus [23] = experiment: Agonist activity in sc dosed mouse by hot water tail withdrawal assay at 1 mg/kg, sc; type: functional; conditions: route subcutaneous
# Mus musculus [24] = experiment: Antagonist activity against morphine-induced antinociception in sc dosed mouse by tail flick assay at 3 mg/kg, sc; type: functional; conditions: route subcutaneous
# T1 sequence (P35372 whole entry): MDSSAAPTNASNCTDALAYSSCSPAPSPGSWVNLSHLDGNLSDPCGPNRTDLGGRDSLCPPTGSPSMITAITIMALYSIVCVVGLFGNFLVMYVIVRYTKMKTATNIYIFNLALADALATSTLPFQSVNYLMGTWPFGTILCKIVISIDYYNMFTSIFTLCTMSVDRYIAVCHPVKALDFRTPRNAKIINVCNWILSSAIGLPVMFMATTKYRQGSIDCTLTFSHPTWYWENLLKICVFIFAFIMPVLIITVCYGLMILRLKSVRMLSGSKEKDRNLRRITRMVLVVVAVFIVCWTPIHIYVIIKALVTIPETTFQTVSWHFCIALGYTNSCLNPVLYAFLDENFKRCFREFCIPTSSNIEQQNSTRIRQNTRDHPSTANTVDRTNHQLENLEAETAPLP
smiles,measurement,setting,value
Cc1ccc(/C=C/C(=O)N[C@@]23CCC(=O)[C@@H]4Oc5c(O)ccc6c5[C@@]42CCN(C)[C@@H]3C6)cc1,Ki,Mu-type opioid receptor [1],0.34 nM
same,ED50,Mus musculus [2],> 30 mg/kg
same,Activity,Mu-type opioid receptor [3],Antagonist
same,Ke,[4],2.2 nM
same,Activity,[5],Antagonist
same,Ke,[6],4.1 nM
same,AD50,Mus musculus [7],0.6 mg/kg
same,Ke,Mu-type opioid receptor [8],0.3 nM
same,Activity,[9]; filed as antagonist,Antagonist
same,Ki,[10],4 nM
same,Ki,[11],1.5 nM
same,inhibition in vivo at 1 mg/kg,Mus musculus [12],57%
COc1ccc2c3c1O[C@H]1C(=O)CC[C@@]4(NC(=O)/C=C/c5ccc(C)cc5)[C@@H](C2)N(C)CC[C@]314,Ki,Mu-type opioid receptor [1],0.49 nM
same,ED50,Mus musculus [2],0.06 mg/kg
same,EC50,Mu-type opioid receptor [13],2.5 nM
same,EC50,[14],84 nM
same,EC50,[15],76 nM
same,Activity,[16],86%
same,AD50,Mus musculus [7],>30 mg/kg
same,ED50,Mus musculus [17],0.4 mg/kg
same,Ki,[10],2.9 nM
same,Ki,[11],9.9 nM
CN1CC[C@]23c4c5ccc(O)c4O[C@H]2C(=O)CC[C@@]3(NC(=O)/C=C/c2ccc([N+](=O)[O-])cc2)[C@H]1C5,Ki,Mu-type opioid receptor [1],0.2 nM
same,Ke,[4],1.4 nM
same,Ke,[6],3.3 nM
same,Ke,Mu-type opioid receptor [8],0.13 nM
same,Ki,[10],0.54 nM
same,Ki,[11],5.5 nM
COc1ccc2c3c1O[C@H]1C(=O)CC[C@@]4(NC(=O)/C=C/c5ccccc5[N+](=O)[O-])[C@@H](C2)N(CC2CC2)CC[C@]314,Activity,Mus musculus [18],40%
CN1CC[C@]23c4c5cccc4O[C@H]2C(=O)CC[C@@]3(NC(=O)/C=C/c2ccccc2Cl)[C@H]1C5,ED50,Mus musculus [2],0.12 mg/kg
same,EC50,Mu-type opioid receptor [13],0.04 nM
same,EC50,[14],0.1 nM
same,EC50,[15],0.1 nM
same,AD50,Mus musculus [7],>30 mg/kg
same,ED50,Mus musculus [17],0.04 mg/kg
COc1ccc2c3c1O[C@H]1C(=O)CC[C@@]4(NC(=O)/C=C/c5ccccc5)[C@@H](C2)N(CC2CC2)CC[C@]314,Activity,Mus musculus [18],40%
same,Activity,Mus musculus [19],65%
CN1CC[C@]23c4c5ccc(O)c4O[C@H]2C(=O)C=C[C@@]3(NC(=O)/C=C/c2ccc(Cl)cc2)[C@H]1C5,ED50,Mus musculus [2],0.5 mg/kg
same,AD50,Mus musculus [7],>30 mg/kg
O=C(/C=C/c1ccc([N+](=O)[O-])cc1)N[C@@]12CCC(=O)[C@@H]3Oc4c(O)ccc5c4[C@@]31CCN(CC1CC1)[C@@H]2C5,Activity,Mus musculus [18],40%
same,Activity,Mus musculus [19],>90%
COc1ccc2c3c1O[C@H]1C(=O)CC[C@@]4(NC(=O)/C=C/c5ccccc5C)[C@@H](C2)N(C)CC[C@]314,Ki,Mu-type opioid receptor [1],0.4 nM
same,EC50,Mu-type opioid receptor [13],0.5 nM
same,EC50,[14],5.6 nM
same,EC50,[15],4.6 nM
same,Activity,[16],108%
same,Ki,[10],0.42 nM
same,Ki,[11],2.3 nM
Cc1ccc(CCC(=O)N[C@@]23CCC(=O)[C@@H]4Oc5c(O)ccc6c5[C@@]42CCN(C)[C@@H]3C6)cc1,Ki,Mu-type opioid receptor [1],0.35 nM
same,ED50,Mus musculus [2],0.5 mg/kg
same,Activity,Mu-type opioid receptor [3],Antagonist
same,Ke,[4]; filed as partial agonist,Partial agonist
same,Activity,[5],Antagonist
same,Ke,[6],4.9 nM
same,AD50,Mus musculus [7],>30 mg/kg
same,ED50,Mus musculus [17],0.09 mg/kg
same,Ke,Mu-type opioid receptor [8],0.32 nM
same,Activity,[9]; filed as partial agonist,Partial agonist
same,Ki,[10],1.25 nM
same,Ki,[11],0.57 nM
Cc1ccccc1/C=C/C(=O)N[C@@]12CCC(=O)[C@@H]3Oc4c(O)ccc5c4[C@@]31CCN(C)[C@@H]2C5,Ki,Mu-type opioid receptor [1],0.21 nM
same,ED50,Mus musculus [2],0.08 mg/kg
same,EC50,Mu-type opioid receptor [13],0.04 nM
same,EC50,[14],0.2 nM
same,EC50,[15],0.4 nM
same,Activity,[16],71%
same,AD50,Mus musculus [7],>30 mg/kg
same,ED50,Mus musculus [17],0.03 mg/kg
same,Ki,[10],0.11 nM
same,Ki,[11],0.23 nM
COc1ccc2c3c1O[C@H]1C(=O)CC[C@@]4(NC(=O)/C=C/c5ccccc5Cl)[C@@H](C2)N(CC2CC2)CC[C@]314,EC50,Mu-type opioid receptor [13],3.8 nM
same,Activity,Mus musculus [20],>90%
same,Ki,[21],2.4 nM
same,Ki,Mu-type opioid receptor [22],0.6 nM
same,EC50,[14],9 nM
same,EC50,[15],17.5 nM
same,Activity,Mus musculus [19],10%
same,Activity,[16],36%
COc1ccc2c3c1O[C@H]1C(=O)CC[C@@]4(NC(=O)/C=C/c5ccc(Cl)cc5)[C@@H](C2)N(CC2CC2)CC[C@]314,ED50,Mus musculus [2],> 30 mg/kg
same,Activity,Mus musculus [18],0%
same,Ke,[4],7.2 nM
same,Activity,Mus musculus [19],65%
same,AD50,Mus musculus [7],>6 mg/kg
same,ED50,Mus musculus [17],0.2 mg/kg
same,Ki,[10],4.8 nM
COc1ccc2c3c1O[C@H]1C(=O)CC[C@@]4(NC(=O)/C=C/c5ccc(C)cc5)[C@@H](C2)N(CC2CC2)CC[C@]314,ED50,Mus musculus [2],> 30 mg/kg
same,Activity,Mus musculus [18],10%
same,Activity,Mus musculus [19],40%
same,AD50,Mus musculus [7],5.7 mg/kg
same,ED50,Mus musculus [17],0.1 mg/kg
COc1ccc2c3c1O[C@H]1C(=O)CC[C@@]4(NC(=O)/C=C/c5ccc(Cl)cc5)[C@@H](C2)N(C)CC[C@]314,Ki,Mu-type opioid receptor [1],0.6 nM
same,ED50,Mus musculus [2],0.04 mg/kg
same,EC50,Mu-type opioid receptor [13],0.9 nM
same,EC50,[15],5 nM
same,Activity,[16],50%
same,AD50,Mus musculus [7],>30 mg/kg
same,ED50,Mus musculus [17],0.02 mg/kg
same,Ki,[10],1 nM
COc1ccc2c3c1O[C@H]1C(=O)CC[C@@]4(NC(=O)/C=C/c5ccccc5Cl)[C@@H](C2)N(C)CC[C@]314,Ki,Mu-type opioid receptor [1],0.68 nM
same,EC50,Mu-type opioid receptor [13],0.5 nM
same,EC50,[14],8.5 nM
same,EC50,[15],2.2 nM
same,Activity,[16],110%
same,Ki,[10],0.58 nM
same,Ki,[11],2.5 nM
O=C(/C=C/c1ccccc1Cl)N[C@@]12CCC(=O)[C@@H]3Oc4c(O)ccc5c4[C@@]31CCN(CC1CC1)[C@@H]2C5,Ki,Mu-type opioid receptor [1],0.71 nM
same,Activity,Mus musculus [18],0%
same,Ke,[4],0.67 nM
same,Ke,[6],0.38 nM
same,Activity,Mus musculus [19],65%
same,Ke,Mu-type opioid receptor [8],0.45 nM
same,Ki,[10],1.3 nM
same,Ki,[11],2.4 nM
COc1ccc2c3c1O[C@H]1C(=O)CC[C@@]4(NC(=O)/C=C/c5ccc([N+](=O)[O-])cc5)[C@@H](C2)N(CC2CC2)CC[C@]314,Activity,Mus musculus [20],>90%
same,Activity,Mus musculus [19],40%
COc1ccc2c3c1O[C@H]1C(=O)CC[C@@]4(NC(=O)/C=C/c5ccccc5C)[C@@H](C2)N(CC2CC2)CC[C@]314,ED50,Mus musculus [2],0.03 mg/kg
same,Activity,Mus musculus [23],>90%
same,EC50,Mu-type opioid receptor [13],2.6 nM
same,Ki,[21],2.1 nM
same,Ki,Mu-type opioid receptor [22],0.2 nM
same,EC50,[14],1.8 nM
same,EC50,[15],20.9 nM
same,Activity,Mus musculus [19],10%
same,Activity,[16],39%
same,AD50,Mus musculus [7],>30 mg/kg
same,ED50,Mus musculus [17],0.03 mg/kg
Cc1ccccc1/C=C/C(=O)N[C@@]12CCC(=O)[C@@H]3Oc4c(O)ccc5c4[C@@]31CCN(CC1CC1)[C@@H]2C5,Ki,Mu-type opioid receptor [1],0.72 nM
same,ED50,Mus musculus [2],> 30 mg/kg
same,Activity,Mus musculus [18],0%
same,Ke,[4],0.4 nM
same,Ke,[6],0.16 nM
same,Activity,Mus musculus [19],65%
same,inhibition in vivo at 3 mg/kg,Mus musculus [24],50%
same,ED50,Mus musculus [17],3.17 mg/kg
same,Ke,Mu-type opioid receptor [8],0.29 nM
same,Ki,[10],1.25 nM
same,Ki,[11],1.5 nM
